# Test results published in US11130762B2, “Azaaryl derivative, preparation method therefor, and application thereof for use in pharmacy” (Abbisko Therapeutics Co., Ltd., priority 2017, dated 2021).
# Read-outs that look alike come from different tables or passages of the source.
# Legend:
# PDGFRA kinase = PDGFRA kinase (Homo sapiens, UniProt P16234); test: PDGFRA in vitro biochemical kinase study (Caliper EZ Reader); settings: Caliper mobility shift; read-out: Enzymatic experiment PDGFRA IC50
# Description: (§1) B. KIT/PDGFRA In Vitro Biochemical Kinase Study
# (§2) 1. Preparation of 1-Fold Kinase Buffer and Stop Solution
# (§3) 1.2 stop solution: 100 mM HEPES, pH 7.5, 0.015% Brij-35, 0.2% Coating Reagent #3, 50 mM EDTA
# (§4) 2. Preparation of Compound Solution
# (§5) 2.1 Dilution of Compound Solution
# (§6) 1) The final concentration of the compound solution was 40 μM, and the concentration of the prepared stock solution was 50 times of the final concentration, i.e., 2 mM.
# (§7) 2) 80 μL of 100% DMSO was added to the second well of the 96-well plate, then 20 μL of 10 mM compound solution was added, and thereby 2 mM compound solution was prepared, 60 μL of 100% DMSO was added to other wells, 20 μL of compound was taken from the second well, added to the third well and diluted by 4 times. This serial 4-time dilution was conducted in sequence for the total of 10 concentrations.
# (§8) 2.2 5-Fold Compound Solution Transferred to a Reaction Plate
# (§9) 1) 10 μL of solution was taken from each well of the above 96-well plate and added to another 96-well plate, and 90 μL of kinase buffer was added.
# (§10) 2) 5 μL of solution was taken from the above 96-well plate and added to a 384-well reaction plate.
# (§11) 1) KIT/PDGFRA kinase was added to the 1-fold kinase buffer solution to obtain a 2.5-fold kinase solution.
# (§12) 2) FAM-labeled polypeptide and ATP were added to the 1-fold kinase buffer solution to obtain a 2.5-fold substrate solution.
# (§13) 3) 10 μL of 2.5-fold kinase solution was added to the 384-well reaction plate, which already contained 5 μL of 5-fold compound in 10% DMSO. And the mixed solution was incubated at room temperature for 10 min.
# (§14) 4) 10 μL of 2.5-fold substrate solution was added to the 384-well reaction plate.
# (§15) 5) Kinase reaction and termination: the mixed solution was incubated at 28° C. for a certain period of time, and 25 μL of stop solution was added to stop the reaction.
# (§16) 2.4 Data Reading of Caliper EZ Reader II
# (§17) 2.5 Calculation of Percent Inhibition and IC50
# (§18) 1) Percent conversion data were copied from the Caliper EZ Reader. […]
# KIT kinase = KIT kinase (Homo sapiens, UniProt P10721); test: KIT in vitro biochemical kinase study (Caliper EZ Reader); settings: Caliper mobility shift; read-out: Enzymatic experiment KIT IC50
# Description: as §1, §2, §3, §4, §5, §6, §7, §8, §9, §10, §11, §12, §13, §14, §15, §16, §17, §18
# [1] = test system: M-NFS-60 mouse myeloid leukemia lymphocytes; test: CSF-1R-related cell proliferation experiment (Cell Titer Glo), M-NFS-60 cells with M-CSF; format: cell-based; settings: Lymphocyte, 72 h, 3 days, CTG, * = average of multiple tests
# Description: C. CSF-1R-Related Cell Proliferation Experiment
# Functional effects of compounds on cell proliferation were evaluated by using Cell Titer Glo (CTG) study in the present invention. M-NFS-60 mouse myeloid leukemia lymphocytes (cat. No. CCBJ078) from National Institutes For Food and Drug Control were cultured in the incubator under conditions of RPMI 1640 (Gibco, cat. No. 11875-119), 10% fetal bovine serum (Gibco, 10099-141), human 10 ng/mL M-CSF macrophage colony-stimulating factor (R&D, cat. No. MVN0915101), 37° C., and 5% CO2. Since ATP is an index for viable cell metabolism, CTG (Promega, #G7573) reagent is a homogeneous detection method for detecting the number of viable cells in the culture by quantifying ATP. Therefore, compound-mediated inhibition for cell proliferation/survival was evaluated by quantifying ATP content in cells, and the specific experimental process was as follows:
# 1. The cells were plated into a tissue-culture-medium-treated 96-well plate (Costar #3904) with 5,000 cells/well/80 μL fresh culture medium;
# 2. 24 hours later, 10 μL culture medium containing testing compound with 10-fold of final concentration was added to each well;
# 3. 10 μL of culture medium containing M-CSF with 10-fold of the final concentration was then added to each well;
# 4. dosage effect was evaluated by testing the 3-fold serial dilutions of the compound;
# 5. after the cells were incubated for 3 days at 37° C. and 5% CO2, the inhibition on cell survival was quantified after 50 μL of CTG was added and the luminescence assay was performed;
# 6. the compound concentration leading to half maximal inhibitory (IC50) and the compound concentration leading to absolute half maximal inhibitory (Absolute IC50) were measured by a plate reader (M1000, Tecan) and a four-parameter curve fit in Graphpad Prism 7.
# CSF-1R = CSF-1R (Homo sapiens, UniProt P07333); test: CSF-1R in vitro biochemical kinase study (ADP-Glo assay); settings: 500 μM ATP, * = average of multiple tests, read-out: Enzymatic experiment CSF1R IC50
# Description: A. CSF-1R In Vitro Biochemical Kinase Study
# In the present invention, the inhibitory activity of compounds against the CSF-1R activity was determined by using CSF-1R ADP-Glo assay. The compound-mediated inhibition effect was achieved by inhibiting the production of ADP from consumption of ATP, and the activities of compounds were evaluated by using the ADP-Glo kit (Promega, cat. No. V9101). The specific experimental process was as follows:
# 1. The kinase reaction performed in the present invention was carried out in a 384-well plate (Perkinelmer, cat. No. 6007290), 3.95 nM of CSF-1R, 500 μM of ATP, and 0.2 mg/mL of polypeptide (Poly (Glu4, Try1), Sigma, cat. No. P0275) were respectively weighed and added to each well:
# 2. following reagents were then added to each well to reach the final reaction system: 40 mM Tris, pH 7.5, 20 mM MgCl2, 0.01% Triton X-100, 0.1 mg/mL BSA, 2.5 mM DTT, and 0.1% DMSO;
# 3. the reaction was conducted at 30° C. for 60 min;
# 4. then an equal volume of stop solution (ADP-Glo) was added to the kinase reaction system;
# 5. the mixed solution was incubated at 25° C. for 60 min, and the kinase reaction was then terminated;
# 6. a two-fold volume of detection reagent was then added to each well;
# 7. the mixed solution was incubated at 25° C. for 30 min;
# 8. the compound IC50 value was measured by using a plate reader (Tecan, M1000) and a four-parameter curve was generated in Graphpad Prism.
# Sequence of PDGFRA kinase (P16234 24-1089): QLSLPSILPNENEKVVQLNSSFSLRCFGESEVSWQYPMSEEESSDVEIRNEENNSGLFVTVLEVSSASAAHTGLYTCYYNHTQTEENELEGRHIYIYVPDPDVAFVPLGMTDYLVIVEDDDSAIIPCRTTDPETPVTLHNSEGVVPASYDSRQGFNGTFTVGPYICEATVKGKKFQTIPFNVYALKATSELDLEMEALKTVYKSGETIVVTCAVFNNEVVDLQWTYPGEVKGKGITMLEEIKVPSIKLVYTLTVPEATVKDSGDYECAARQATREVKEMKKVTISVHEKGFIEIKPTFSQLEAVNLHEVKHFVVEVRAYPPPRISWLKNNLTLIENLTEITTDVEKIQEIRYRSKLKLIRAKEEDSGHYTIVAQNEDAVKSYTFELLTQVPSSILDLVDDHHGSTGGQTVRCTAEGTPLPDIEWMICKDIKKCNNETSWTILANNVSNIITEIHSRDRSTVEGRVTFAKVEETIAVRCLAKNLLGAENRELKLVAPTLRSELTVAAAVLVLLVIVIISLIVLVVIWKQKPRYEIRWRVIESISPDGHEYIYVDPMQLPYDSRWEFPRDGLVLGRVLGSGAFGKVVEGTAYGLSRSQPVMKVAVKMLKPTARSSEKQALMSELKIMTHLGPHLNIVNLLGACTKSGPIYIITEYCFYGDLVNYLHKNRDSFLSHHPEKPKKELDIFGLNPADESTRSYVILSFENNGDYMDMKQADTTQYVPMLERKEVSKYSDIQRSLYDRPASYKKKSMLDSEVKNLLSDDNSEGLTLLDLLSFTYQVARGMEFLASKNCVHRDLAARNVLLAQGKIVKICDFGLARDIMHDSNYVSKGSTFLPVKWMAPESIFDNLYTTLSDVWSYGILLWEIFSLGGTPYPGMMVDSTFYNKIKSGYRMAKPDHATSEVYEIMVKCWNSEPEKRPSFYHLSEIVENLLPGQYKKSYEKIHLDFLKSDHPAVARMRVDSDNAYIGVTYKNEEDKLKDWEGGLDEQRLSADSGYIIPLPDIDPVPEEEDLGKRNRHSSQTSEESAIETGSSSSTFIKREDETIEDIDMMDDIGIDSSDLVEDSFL
# Sequence of KIT kinase (P10721 26-976): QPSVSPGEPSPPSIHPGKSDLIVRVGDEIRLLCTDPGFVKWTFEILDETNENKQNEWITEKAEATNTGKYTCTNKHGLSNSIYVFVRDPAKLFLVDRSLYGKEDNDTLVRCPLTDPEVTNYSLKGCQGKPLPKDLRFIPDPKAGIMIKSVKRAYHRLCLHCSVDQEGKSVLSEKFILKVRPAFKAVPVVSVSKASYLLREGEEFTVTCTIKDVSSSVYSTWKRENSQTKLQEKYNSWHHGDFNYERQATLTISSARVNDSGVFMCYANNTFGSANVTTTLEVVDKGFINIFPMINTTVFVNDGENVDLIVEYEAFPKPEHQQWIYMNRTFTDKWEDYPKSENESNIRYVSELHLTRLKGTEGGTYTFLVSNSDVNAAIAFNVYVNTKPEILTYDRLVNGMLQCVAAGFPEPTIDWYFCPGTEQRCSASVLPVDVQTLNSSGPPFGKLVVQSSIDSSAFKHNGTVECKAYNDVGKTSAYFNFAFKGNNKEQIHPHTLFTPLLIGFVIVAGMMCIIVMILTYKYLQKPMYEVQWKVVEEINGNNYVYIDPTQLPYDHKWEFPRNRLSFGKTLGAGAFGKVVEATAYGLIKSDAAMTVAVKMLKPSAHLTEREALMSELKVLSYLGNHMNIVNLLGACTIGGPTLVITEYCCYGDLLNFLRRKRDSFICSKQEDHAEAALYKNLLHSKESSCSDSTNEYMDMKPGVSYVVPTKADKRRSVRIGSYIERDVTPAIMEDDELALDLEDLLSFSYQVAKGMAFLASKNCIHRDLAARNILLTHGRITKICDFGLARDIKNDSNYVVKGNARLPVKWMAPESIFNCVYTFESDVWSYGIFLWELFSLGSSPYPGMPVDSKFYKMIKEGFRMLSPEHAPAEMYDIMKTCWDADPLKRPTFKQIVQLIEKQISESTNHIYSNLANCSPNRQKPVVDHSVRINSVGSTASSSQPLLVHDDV
# Sequence of CSF-1R (P07333 20-972): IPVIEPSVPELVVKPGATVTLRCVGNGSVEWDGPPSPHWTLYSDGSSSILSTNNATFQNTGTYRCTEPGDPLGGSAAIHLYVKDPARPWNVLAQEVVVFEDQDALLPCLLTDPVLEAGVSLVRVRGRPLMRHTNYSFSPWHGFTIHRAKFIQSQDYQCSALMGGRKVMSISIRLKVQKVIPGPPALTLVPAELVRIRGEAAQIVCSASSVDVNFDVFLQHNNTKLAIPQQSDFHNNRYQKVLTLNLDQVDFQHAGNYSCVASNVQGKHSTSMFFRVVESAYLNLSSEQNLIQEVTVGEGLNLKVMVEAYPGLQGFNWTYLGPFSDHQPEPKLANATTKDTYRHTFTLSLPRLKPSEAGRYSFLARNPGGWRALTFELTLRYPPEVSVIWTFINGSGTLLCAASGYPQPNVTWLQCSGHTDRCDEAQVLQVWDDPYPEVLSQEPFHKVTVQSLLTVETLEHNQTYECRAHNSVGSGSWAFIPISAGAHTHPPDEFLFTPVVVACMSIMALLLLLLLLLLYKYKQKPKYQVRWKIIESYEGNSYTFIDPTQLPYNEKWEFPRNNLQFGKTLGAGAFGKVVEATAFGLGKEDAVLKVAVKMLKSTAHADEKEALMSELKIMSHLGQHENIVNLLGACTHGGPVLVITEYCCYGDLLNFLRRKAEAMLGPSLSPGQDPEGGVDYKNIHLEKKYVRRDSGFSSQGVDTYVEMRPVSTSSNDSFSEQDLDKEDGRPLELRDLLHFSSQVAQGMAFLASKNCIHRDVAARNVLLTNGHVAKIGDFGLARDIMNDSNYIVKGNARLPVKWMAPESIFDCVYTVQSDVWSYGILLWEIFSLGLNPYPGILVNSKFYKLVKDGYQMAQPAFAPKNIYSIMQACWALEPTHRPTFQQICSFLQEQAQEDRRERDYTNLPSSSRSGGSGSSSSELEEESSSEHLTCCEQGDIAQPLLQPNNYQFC
compound,measurement,setting,value
"Cc1nc(-c2cnc3n(c2=O)CCCN3C(C)C)ccc1Oc1ccnc(-c2cnn(C)c2)c1 [Example 5, 9-isopropyl-3-(6-methyl-5-((2-(1-methyl-1H-pyrazol-4-yl)pyridin-4-yl)oxy)pyridin-2-yl)-6,7,8,9-tetrahydro-4H-pyrimido[1,2-a]pyrimidin-4-one]",IC50,PDGFRA kinase,226 nM
same,IC50,KIT kinase,22.6 nM
same,IC50,[1]; read-out: Cytological experiment CSF1R IC50,127 nM
same,IC50,"[1]; absolute half maximal inhibition, read-out: Cytological experiment CSF-1R Absolute IC50",114 nM
same,IC50,CSF-1R,95.2 nM
